The values below come from patent US6710048B2, “Pyrazine derivatives as modulators of tyrosine kinases” (Ortho-McNeil Pharmaceutical, Inc., priority 2000, dated 2004).

Type in all cases: biochemical
For assay [1], the target named is CDK4 (cyclin dependent kinase 4) (Homo sapiens, UniProt P11802). Kind of assay: CDK4 kinase selectivity assay. To be noted: Table 4 kinase selectivity; 10 = approximate value; read-out: IC50, Assay 3 CDK4. How it is done: (§1) Assays to test compound inhibition of other kinases were preformed using methods that measure the amount of phosphorylation of a biotinylated peptide substrate. Biotinylated peptide substrates were selected from the literature as appropriate for the enzyme being evaluated. […] Assay conditions vary slightly for each protein kinase, for example, insulin receptor kinase requires 10 mM MnCl2 for activity and Calmodulin-dependent protein kinase requires calmodulin and 2 mM CaCl2. The reaction mixture was dispensed into the wells of a streptavidin coated Flashplate and 1 μl drug stock in 100% DMSO was added to a 100 μl reaction volume resulting in a final concentration of 1% DMSO in the reaction. Enzyme was diluted in 50 mM Tris-HCl pH=8.0, 0.1% BSA and added to each well. The reaction was incubated for one hour at 30° C. in the presence of compound. After one hour the reaction mix was aspirated from the plate and the plate was washed with PBS containing 100 mM EDTA. The plate was read on a scintillation counter to determine ^33P-γ-ATP incorporated into the immobilized peptide. Test compounds were assayed in duplicate at 8 concentrations [100 tM, 10 μM, 1 μM, 100 nM, 10 nM, 1 nM, 100 μM, 10 μM]. A maximum and minimum signal for the assay was determined on each plate. The IC50 was calculated from the dose response curve of the percent inhibition of the maximum signal in the assay according to the formula [max signal−background/test compound signal−background (100)=% inhibition] by graphing the percent inhibition against the log concentration of test compound. Known inhibitor compounds appropriate for the kinase being assayed were also included on each plate.
CDK4 (cyclin dependent kinase 4), sequence (P11802 whole entry, species assumed): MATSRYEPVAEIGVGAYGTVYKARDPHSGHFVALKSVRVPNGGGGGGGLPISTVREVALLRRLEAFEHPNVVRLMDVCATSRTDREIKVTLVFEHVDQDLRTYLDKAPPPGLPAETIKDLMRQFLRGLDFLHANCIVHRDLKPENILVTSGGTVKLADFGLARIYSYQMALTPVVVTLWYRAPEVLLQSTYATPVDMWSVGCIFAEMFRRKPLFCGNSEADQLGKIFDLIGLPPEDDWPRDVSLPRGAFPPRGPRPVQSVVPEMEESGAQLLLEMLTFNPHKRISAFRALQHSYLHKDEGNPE
CDK4 (cyclin dependent kinase 4), sequence (P24385 whole entry partner, species assumed): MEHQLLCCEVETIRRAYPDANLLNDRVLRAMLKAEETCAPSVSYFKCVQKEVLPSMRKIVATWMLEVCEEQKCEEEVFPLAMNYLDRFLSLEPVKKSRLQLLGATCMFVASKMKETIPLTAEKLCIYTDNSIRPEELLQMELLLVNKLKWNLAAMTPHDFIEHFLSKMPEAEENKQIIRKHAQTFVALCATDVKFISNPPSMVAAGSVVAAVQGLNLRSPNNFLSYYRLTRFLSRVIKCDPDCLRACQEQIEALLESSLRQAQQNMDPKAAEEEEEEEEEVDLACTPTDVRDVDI
(§2) VEGF-R (vascular endothelial growth factor receptor-2) is a fusion protein containing a polyhistidine tag at the N-terminus followed by amino acids 786-1343 of the rat VEGF-R2 kinase domain (GenBank Accession #U93306). CDK1 (cyclin dependent kinase 1) is isolated from insect cells expressing both the human CDK1 catalytic subunit and its positive regulatory subunit cyclin B (New England Biolabs, Beverly, Mass., Cat. #6020). CDK4 (cyclin dependent kinase 4) contains amino acids 769 to 921 of the mouse […] protein found in the GST-retinoblastoma protein construct (Santa Cruz Biotechnology, Santa Cruz, Calif.; Cat. #SC-4112). Insulin Receptor Kinase consists of residues 941-1313 of the cytoplasmic domain of the beta-subunit of the human insulin receptor (BIOMOL, Plymouth Meeting, Pa., Cat. #SE-195). Protein Kinase A is the catalytic subunit of cAMP dependent protein kinase-A purified from bovine heart (Upstate Biotech, Lake Placid, N.Y., Cat#14-114). PKC (protein kinase-C) is the gamma or beta isoform of the human protein produced in insect cells (BIOMOL, Plymouth Meeting, Pa., Cat. #SE-143). […]

The target in assay [2] is T1, Casein Kinase 2 (Homo sapiens, UniProt P68400).
T1 construct: purchased New England Biolabs 6010; host or cells: E. coli
T1 sequence (P68400 whole entry): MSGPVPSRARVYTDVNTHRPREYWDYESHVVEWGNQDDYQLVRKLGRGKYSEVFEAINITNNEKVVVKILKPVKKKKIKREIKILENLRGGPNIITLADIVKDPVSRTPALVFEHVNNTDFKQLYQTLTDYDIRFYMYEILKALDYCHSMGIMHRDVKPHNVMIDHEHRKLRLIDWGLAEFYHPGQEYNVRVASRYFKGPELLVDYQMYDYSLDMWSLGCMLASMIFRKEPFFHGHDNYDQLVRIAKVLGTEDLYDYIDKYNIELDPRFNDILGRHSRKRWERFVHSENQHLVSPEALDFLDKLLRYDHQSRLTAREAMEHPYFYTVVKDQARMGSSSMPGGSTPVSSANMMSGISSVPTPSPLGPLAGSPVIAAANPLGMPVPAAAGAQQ
T1 sequence (P67870 whole entry partner): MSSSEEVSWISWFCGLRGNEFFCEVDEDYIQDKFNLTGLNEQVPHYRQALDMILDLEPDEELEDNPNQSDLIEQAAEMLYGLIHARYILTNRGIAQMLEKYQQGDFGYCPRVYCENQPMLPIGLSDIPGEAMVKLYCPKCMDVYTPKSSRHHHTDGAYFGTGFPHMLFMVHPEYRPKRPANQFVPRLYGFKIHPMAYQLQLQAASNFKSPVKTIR
Description: Casein Kinase 2 selectivity assay. Conditions: Table 4 kinase selectivity; 10 = approximate value; read-out: IC50, Assay 9 Casein Kinase 2. How it is done: as §1
as §2, with “#SE-143). Casein Kinase 1 is a truncation at amino acid 318 of the C-terminal portion of the rat CK1 delta isoform produced in E.coli (New England Biolabs, Beverly, Mass., Cat. #6030). Casein Kinase 2 includes the alpha and beta subunits of the human CK2 protein produced in E.coli (New England Biolabs, Beverly, Mass., Cat. #6010). Calmodulin Kinase (calmodulin-dependent protein kinase 2) is a truncated version of the alpha subunit of the rat protein produced in insect cells (New England Biolabs, Beverly, Mass., Cat. #6060). Glycogen Synthase Kinase-3 is the beta isoform of the rabbit enzyme produced in E. coli (New England Biolabs, Beverly, Mass., Cat. #6040). MAP Kinase is the rat ERK-2 isoform containing a polyhistidine tag at the N-terminus produced in E. coli. and activated by phosphorylation with MEK1 prior to purification (BIOMOL, Plymouth Meeting, Pa., Cat. #SE-137). EGFR (epidermal growth factor receptor) is purified from human A431 cell membranes (Sigma, St. Louis, Mo., Cat.# E3641). PDGF-R (platelet derived growth factor receptor) is a fusion protein containing a polyhistidine tag at the N-terminus followed by nucleotides 1874-3507 of the human PDGF-R beta subunit kinase domain (Accession #M21616).” for “#SE-143).”

Assay [3] deals with T2, MAP Kinase ERK-2 (Rattus norvegicus, UniProt P63086).
T2 construct: polyhistidine (N); purchased BIOMOL SE-137; host or cells: E. coli
T2 sequence (P63086 whole entry): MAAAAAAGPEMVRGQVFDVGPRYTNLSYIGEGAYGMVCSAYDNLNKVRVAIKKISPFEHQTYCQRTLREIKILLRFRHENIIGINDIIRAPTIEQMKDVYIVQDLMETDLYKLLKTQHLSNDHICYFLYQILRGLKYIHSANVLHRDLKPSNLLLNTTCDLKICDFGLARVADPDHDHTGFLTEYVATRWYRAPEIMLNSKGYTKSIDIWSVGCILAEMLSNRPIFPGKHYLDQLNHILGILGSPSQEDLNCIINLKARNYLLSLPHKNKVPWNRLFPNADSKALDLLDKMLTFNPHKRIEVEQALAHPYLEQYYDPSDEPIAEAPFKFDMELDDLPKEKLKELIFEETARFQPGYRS
Kind of assay: MAP Kinase ERK-2 selectivity assay. Conditions: Table 4 kinase selectivity; read-out: IC50, Assay 12 MAP Kinase ERK-2. How it is done: as §1
as §2, with “#SE-143). Casein Kinase 1 is a truncation at amino acid 318 of the C-terminal portion of the rat CK1 delta isoform produced in E.coli (New England Biolabs, Beverly, Mass., Cat. #6030). Casein Kinase 2 includes the alpha and beta subunits of the human CK2 protein produced in E.coli (New England Biolabs, Beverly, Mass., Cat. #6010). Calmodulin Kinase (calmodulin-dependent protein kinase 2) is a truncated version of the alpha subunit of the rat protein produced in insect cells (New England Biolabs, Beverly, Mass., Cat. #6060). Glycogen Synthase Kinase-3 is the beta isoform of the rabbit enzyme produced in E. coli (New England Biolabs, Beverly, Mass., Cat. #6040). MAP Kinase is the rat ERK-2 isoform containing a polyhistidine tag at the N-terminus produced in E. coli. and activated by phosphorylation with MEK1 prior to purification (BIOMOL, Plymouth Meeting, Pa., Cat. #SE-137). EGFR (epidermal growth factor receptor) is purified from human A431 cell membranes (Sigma, St. Louis, Mo., Cat.# E3641). PDGF-R (platelet derived growth factor receptor) is a fusion protein containing a polyhistidine tag at the N-terminus followed by nucleotides 1874-3507 of the human PDGF-R beta subunit kinase domain (Accession #M21616).” for “#SE-143).”

For assay [4], the target named is T3, EGFR (epidermal growth factor receptor) (Homo sapiens, UniProt P00533).
T3 construct: is purified from human A431 cell membranes; purchased Sigma E3641; host or cells: A431 cell membranes
T3 sequence (P00533 25-1210): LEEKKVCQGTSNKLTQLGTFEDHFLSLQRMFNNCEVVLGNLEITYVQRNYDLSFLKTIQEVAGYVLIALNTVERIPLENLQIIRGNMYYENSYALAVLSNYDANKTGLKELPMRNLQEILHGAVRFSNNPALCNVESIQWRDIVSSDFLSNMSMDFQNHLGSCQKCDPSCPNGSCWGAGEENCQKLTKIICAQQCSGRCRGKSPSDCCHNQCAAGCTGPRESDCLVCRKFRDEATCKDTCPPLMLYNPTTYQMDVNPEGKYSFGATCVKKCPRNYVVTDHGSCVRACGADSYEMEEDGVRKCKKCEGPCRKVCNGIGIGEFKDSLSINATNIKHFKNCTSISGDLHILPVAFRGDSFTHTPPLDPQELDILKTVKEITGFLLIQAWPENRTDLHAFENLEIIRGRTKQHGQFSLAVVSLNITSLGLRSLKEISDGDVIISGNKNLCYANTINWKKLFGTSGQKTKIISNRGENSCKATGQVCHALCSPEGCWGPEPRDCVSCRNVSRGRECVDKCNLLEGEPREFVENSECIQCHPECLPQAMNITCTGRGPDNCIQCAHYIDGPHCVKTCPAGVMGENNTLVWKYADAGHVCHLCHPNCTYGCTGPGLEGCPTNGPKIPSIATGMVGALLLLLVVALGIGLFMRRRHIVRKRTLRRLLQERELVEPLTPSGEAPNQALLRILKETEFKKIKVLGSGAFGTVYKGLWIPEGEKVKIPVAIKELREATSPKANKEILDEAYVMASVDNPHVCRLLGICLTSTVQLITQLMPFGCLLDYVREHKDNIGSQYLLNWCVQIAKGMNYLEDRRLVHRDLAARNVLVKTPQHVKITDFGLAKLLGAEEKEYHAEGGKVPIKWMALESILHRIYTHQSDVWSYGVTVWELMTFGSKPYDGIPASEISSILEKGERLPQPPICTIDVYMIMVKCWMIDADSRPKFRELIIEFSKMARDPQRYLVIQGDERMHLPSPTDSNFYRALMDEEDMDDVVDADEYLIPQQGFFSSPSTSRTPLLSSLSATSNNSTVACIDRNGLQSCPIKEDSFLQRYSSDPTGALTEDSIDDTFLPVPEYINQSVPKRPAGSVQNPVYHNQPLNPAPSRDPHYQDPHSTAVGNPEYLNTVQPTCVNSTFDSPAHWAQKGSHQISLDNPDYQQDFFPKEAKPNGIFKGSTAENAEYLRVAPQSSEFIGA
Kind of assay: EGF-R kinase selectivity assay. To be noted: Table 4 kinase selectivity. How it is done: as §1, with “After one hour the reaction mix was aspirated from the plate and the plate was washed with PBS containing 100 mM EDTA.” left out, “Test compounds were assayed in duplicate at 8 concentrations [100 tM, 10 μM, 1 μM, 100 nM, 10 nM, 1 nM, 100 μM, 10 μM].” left out, “Known inhibitor compounds appropriate for the kinase being assayed were also included on each plate.” left out

Assay [5] has as its target HER2 (Homo sapiens, UniProt P04626). Kind of assay: HER2 kinase selectivity assay. To be noted: Table 4 kinase selectivity; read-out: IC50, Assay 16 HER2. The procedure: Assays to test compound inhibition of other kinases were preformed using methods that measure the amount of phosphorylation of a biotinylated peptide substrate. Biotinylated peptide substrates were selected from the literature as appropriate for the enzyme being evaluated. The general procedure used to assay for kinase activity is as follows: A kinase reaction mix was prepared in 50 mM Tris-HCl pH=8, 10 mM MgCl2, 0.1 mM NaVO4, 1 mM DTT, 5-10 μM ATP, 0.25-1 μM biotinylated peptide substrate, 0.2-0.8 μCuries per well ^33P-γ-ATP [2000-3000 Ci/mmol]. Assay conditions vary slightly for each protein kinase, for example, insulin receptor kinase requires 10 mM MnCl2 for activity and Calmodulin-dependent protein kinase requires calmodulin and 2 mM CaCl2. The reaction mixture was dispensed into the wells of a streptavidin coated Flashplate and 1 μl drug stock in 100% DMSO was added to a 100 μl reaction volume resulting in a final concentration of 1% DMSO in the reaction. Enzyme was diluted in 50 mM Tris-HCl pH=8.0, 0.1% BSA and added to each well. The reaction was incubated for one hour at 30° C. in the presence of compound. After one hour the reaction mix was aspirated from the plate and the plate was washed with PBS containing 100 mM EDTA. The plate was read on a scintillation counter to determine ^33P-γ-ATP incorporated into the immobilized peptide. Test compounds were assayed in duplicate at 8 concentrations [100 tM, 10 μM, 1 μM, 100 nM, 10 nM, 1 nM, 100 μM, 10 μM]. A maximum and minimum signal for the assay was determined on each plate. The IC50 was calculated from the dose response curve of the percent inhibition of the maximum signal in the assay according to the formula [max signal−background/test compound signal−background (100)=% inhibition] by graphing the percent inhibition against the log concentration of test compound. Known inhibitor compounds appropriate for the kinase being assayed were also included on each plate.

HER2, sequence (P04626 23-1255, species assumed): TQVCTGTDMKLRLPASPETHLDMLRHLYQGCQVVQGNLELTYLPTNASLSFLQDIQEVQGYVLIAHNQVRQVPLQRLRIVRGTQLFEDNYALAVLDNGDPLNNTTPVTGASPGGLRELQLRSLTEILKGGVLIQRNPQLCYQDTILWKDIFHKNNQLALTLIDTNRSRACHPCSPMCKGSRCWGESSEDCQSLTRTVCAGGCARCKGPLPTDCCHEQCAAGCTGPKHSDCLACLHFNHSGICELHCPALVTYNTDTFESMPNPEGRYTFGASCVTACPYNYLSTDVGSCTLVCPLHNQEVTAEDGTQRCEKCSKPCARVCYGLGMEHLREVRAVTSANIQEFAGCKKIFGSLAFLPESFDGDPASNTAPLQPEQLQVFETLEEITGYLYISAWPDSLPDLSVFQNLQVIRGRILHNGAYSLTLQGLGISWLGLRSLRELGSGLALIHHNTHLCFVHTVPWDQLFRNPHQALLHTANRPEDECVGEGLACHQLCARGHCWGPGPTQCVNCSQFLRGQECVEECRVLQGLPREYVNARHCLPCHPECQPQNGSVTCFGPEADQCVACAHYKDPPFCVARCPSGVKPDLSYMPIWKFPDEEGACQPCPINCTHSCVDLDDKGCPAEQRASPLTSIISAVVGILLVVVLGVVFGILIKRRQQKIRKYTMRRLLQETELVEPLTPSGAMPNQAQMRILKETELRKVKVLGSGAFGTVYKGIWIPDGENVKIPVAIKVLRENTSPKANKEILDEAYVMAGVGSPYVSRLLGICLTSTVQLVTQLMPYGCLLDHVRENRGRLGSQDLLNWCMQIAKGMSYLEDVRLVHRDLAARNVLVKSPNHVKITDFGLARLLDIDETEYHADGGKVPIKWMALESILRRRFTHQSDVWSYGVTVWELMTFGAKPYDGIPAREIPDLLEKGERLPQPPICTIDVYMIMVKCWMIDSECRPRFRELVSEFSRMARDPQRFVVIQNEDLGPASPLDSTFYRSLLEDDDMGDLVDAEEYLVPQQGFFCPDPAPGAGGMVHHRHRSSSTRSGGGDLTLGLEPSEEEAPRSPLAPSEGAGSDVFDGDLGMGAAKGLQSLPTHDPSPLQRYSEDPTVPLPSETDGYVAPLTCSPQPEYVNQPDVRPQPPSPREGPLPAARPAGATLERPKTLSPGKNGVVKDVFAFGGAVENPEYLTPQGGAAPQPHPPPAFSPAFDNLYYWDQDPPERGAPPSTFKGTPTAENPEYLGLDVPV

As usually defined, the IC50 is the concentration that inhibits the measured activity by half. Regarding `OCCCNc1cncc(-c2cncc(Nc3cccc(Cl)c3)n2)c1` [Cmd 4], the results for the IC50 in assay [1], in assay [2] and in assay [3] were about 10 µM, over 100 µM and over 100 µM, respectively.

`OCCCCNc1cncc(-c2cncc(Nc3cccc(Cl)c3)n2)c1` [Cmd 32]: the IC50 in assay [1] is over 10 µM; in assay [2] it was over 100 µM; in assay [3], over 100 µM.

On to `CN(C)CCNc1cncc(-c2cncc(Nc3cccc(Cl)c3)n2)c1` [Cmd 33, N′-[5-[6-[(3-chlorophenyl)amino]pyrazinyl]-3-pyridinyl]-N^2,N^2-dimethyl-1,2-ethanediamine], for which the half-maximal inhibitory concentration (IC50) in assay [1] was about 10 µM; in assay [2], over 100 µM; in assay [3], over 100 µM.

Regarding `CN(C)CCCNc1cncc(-c2cncc(Nc3cccc(Cl)c3)n2)c1` [Cmd 35], the IC50 in assay [1] is about 10 µM; in assay [4], 20.7 µM; in assay [2] it was over 100 µM; in assay [3] it was over 100 µM.

On to `O=C(NCCCO)c1cncc(-c2cncc(Nc3cccc(Cl)c3)n2)c1` [Cmd 39], for which the results for the IC50 in assay [4], in assay [2] and in assay [3] were 6.06 µM, about 10 µM and over 100 µM, respectively.

For `Clc1cccc(Nc2cncc(-c3cncc(NCCCc4ccncc4)c3)n2)c1` [Cmd 71], the IC50 in assay [2], in assay [3] and in assay [5] was over 100 µM each time.

In the case of `Clc1cccc(Nc2cncc(-c3cncc(NCCCc4cccnc4)c3)n2)c1` [Cmd 72], the IC50 is over 100 µM in assay [2], over 100 µM in assay [3] and 9.7 µM in assay [5].

For `Clc1cccc(Nc2cncc(-c3cncc(NCCCN4CCCCC4)c3)n2)c1` [Cmd 73], the half-maximal inhibitory concentration (IC50) was 6.35 µM in assay [2], over 100 µM in assay [3] and 7.2 µM in assay [5].

In the case of `Clc1cccc(Nc2cncc(-c3cncc(NCCCn4cccn4)c3)n2)c1` [Cmd 75], the results for the IC50 in assay [2], in assay [3] and in assay [5] were 8.1 µM, over 100 µM and 3 µM, respectively.

For `Clc1cccc(Nc2cncc(-c3cncc(NCCCn4cncn4)c3)n2)c1` [Cmd 76], the IC50 is 7.2 µM in assay [2], over 100 µM in assay [3] and 2.24 µM in assay [5].
